# Earlier results as cited in patent publication US8747385B2, “Methods and compositions to treat myocardial conditions” (Abbott Cardiovascular Systems Inc., priority 2003, dated 2014).
row,Structure (SMILES),O2 solubility at 37° C. [V %]
1,"FC(F)(F)C(F)(F)C(F)(F)C(F)(F)CCC(F)(F)C(F)(F)C(F)(F)C(F)(F)F [F-44E, 1,2-bis(perfluorobutyl)ethane]",50
2,"FC1(F)C(F)(F)C(F)(F)C2(F)C(F)(F)C(F)(F)C(F)(F)C(F)(F)C2(F)C1(F)F (centres unmarked) [FDC, Perfluorodecalin]",45
